Experiments:
kinases of Table 5 [1] = biological target: kinases of Table 5 (Homo sapiens, UniProt P24723); experiment: Further analysis of a plurality of inhibitors and a plurality of kinases (Table 5 inhibition results); format: biochemical; parameters: scale not given here; details: for Inhibition level: kinase PRKCH; for Inhibition Results (Level): kinase PRKCH (Part II, plate B3, Domain 0)
From the text: (§1) The wash solution is then discarded.

kinases of Table 5 [2] = biological target: kinases of Table 5 (Homo sapiens, UniProt P11362); experiment: as above; format: biochemical; parameters: scale not given here; details: inhibitor 100 uM; for Inhibition level: kinase FGFR1; for Inhibition Results (Level): kinase FGFR1 (Part II, plate D12, Domain 1)
From the text: as §1

kinases of Table 5 [3] = biological target: T1, kinases of Table 5 (Homo sapiens, UniProt Q9UHD2); experiment: as above; format: biochemical; parameters: scale not given here; details: kinase TBK1 (Part I, plate G1, Domain 0); inhibitor 100 uM
T1 sequence (Q9UHD2 1-729): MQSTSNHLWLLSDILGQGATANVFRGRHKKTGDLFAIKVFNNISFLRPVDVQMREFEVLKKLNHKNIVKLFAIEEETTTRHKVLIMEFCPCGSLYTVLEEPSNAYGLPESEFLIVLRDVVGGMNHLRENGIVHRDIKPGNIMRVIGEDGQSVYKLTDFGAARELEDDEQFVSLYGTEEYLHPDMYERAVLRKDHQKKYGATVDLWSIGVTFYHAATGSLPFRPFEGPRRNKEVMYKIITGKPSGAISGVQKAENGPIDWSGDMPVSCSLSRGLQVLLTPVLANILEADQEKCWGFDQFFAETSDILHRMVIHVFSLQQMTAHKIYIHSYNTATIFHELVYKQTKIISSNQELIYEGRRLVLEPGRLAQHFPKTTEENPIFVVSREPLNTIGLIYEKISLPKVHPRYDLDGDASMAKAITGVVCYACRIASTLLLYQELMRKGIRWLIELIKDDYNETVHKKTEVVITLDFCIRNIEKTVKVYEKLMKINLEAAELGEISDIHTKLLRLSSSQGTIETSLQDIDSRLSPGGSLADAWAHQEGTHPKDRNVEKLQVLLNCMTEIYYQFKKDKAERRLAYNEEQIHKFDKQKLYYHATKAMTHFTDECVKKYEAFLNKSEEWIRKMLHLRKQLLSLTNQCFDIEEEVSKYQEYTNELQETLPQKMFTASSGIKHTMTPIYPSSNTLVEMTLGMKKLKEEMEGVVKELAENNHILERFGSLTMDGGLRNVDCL
From the text: as §1

kinases of Table 5 [4] = biological target: T2, kinases of Table 5 (Homo sapiens, UniProt P51813); experiment: as above; format: biochemical; parameters: scale not given here; details: inhibitor 100 uM; for Inhibition level: kinase BMX; for Inhibition Results (Level): kinase BMX (Part II, plate B12, Domain 1)
T2 sequence (P51813 1-675): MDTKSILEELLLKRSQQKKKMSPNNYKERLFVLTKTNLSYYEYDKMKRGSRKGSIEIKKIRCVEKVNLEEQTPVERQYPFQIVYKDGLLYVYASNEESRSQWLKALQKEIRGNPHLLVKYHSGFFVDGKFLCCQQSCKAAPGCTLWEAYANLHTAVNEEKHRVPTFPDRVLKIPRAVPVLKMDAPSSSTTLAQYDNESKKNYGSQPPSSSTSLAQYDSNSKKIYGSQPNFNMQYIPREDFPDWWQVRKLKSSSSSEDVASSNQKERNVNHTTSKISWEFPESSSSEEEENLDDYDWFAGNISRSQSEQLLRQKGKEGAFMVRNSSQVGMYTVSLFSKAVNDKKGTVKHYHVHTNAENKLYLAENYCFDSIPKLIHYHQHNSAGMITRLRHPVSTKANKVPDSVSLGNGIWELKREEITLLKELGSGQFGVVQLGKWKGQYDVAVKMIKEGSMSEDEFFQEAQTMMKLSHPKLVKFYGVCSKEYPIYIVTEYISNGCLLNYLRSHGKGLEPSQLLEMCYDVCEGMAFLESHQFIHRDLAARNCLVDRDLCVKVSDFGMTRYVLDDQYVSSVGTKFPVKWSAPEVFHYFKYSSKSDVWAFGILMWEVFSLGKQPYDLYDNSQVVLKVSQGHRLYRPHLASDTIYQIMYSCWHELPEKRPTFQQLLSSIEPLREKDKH
From the text: as §1

PRKCD = PRKCD (Homo sapiens, UniProt Q05655); experiment: Dose-response analysis on 10-well kinase microarray; format: biochemical; details: different inhibitor concentration in each well; substrate MBP, histone and casein
Method: as §1
(§2) Microarrays were prepared with 10 wells/slide, wherein the kinases EPHB3, FYN, and PRKCD and their substrate were immobilized in each well.

tyrosine kinases = experiment: Inhibitor specificity profiling on kinase microarray (fifty kinases, gamma-AT33P); details: inhibitor 100 μm; substrate mixture of MBP, histone and casein
Method: To coat slides with kinase substrate, the substrates are diluted to 10 ng/μL in 1×PBS and 180-200 μL of substrate solution are pipetted onto one slide, e.g., a glass slide, aldehyde treated slides (TeleChem International, Inc.), nitrocellulose-coated slides (Schleicher & Schuell), slides with an amino-silane surface (Corning). A second slide is then placed on top of the first slide so that the sides to be deposited with kinases face each other. Care should be taken that the liquid covers the entire slide and that there are no air bubbles. The slides are placed in a 50 mL conical tube, making sure they are laying flat and incubated at 4° C. for one hour to several days.
Subsequently, approximately 100 mL of PBST are added to the dish. The slides are then washed for one hour at 4° C. with shaking. The PBST is then discarded and the slides are gently rinsed with dH2O using a squirt bottle. After rinsing, the slides are placed into a slide boxes and centrifuged at 4000 rpm for one minute. The slides are then stored at 4° C. until printing with kinase.
1 mL of kinase assay buffer for every 12 glass slides to be probed is prepared. 6 μL of gamma-AT^33P (10 μCi/μL) are added to the assay buffer. The slides are placed in 50 mL conical tubes, laying flat, proteins facing up. 70 μL to 150 μL of the kinase assay buffer with gamma-AT^33P are added onto each slide. […]

39 kinases (Table 4) = experiment: Global specificity profiling experiment, single point inhibition on kinase microarray; format: biochemical; details: substrates histone, casein, MBP, polyEY, control 2% DMSO
Method: as §1
To assess the application of microarray assays for compound profiling, seven known inhibitors (see Table of inhibitors used in global specificity profiling experiment) and one control (2% DMSO) were tested on microarrays deposited with a group of kinases (as well as positive and negative controls). The method of Example I was used. Twelve spots of each kinase or control were deposited on each array, and three arrays were used for each inhibitor. A mixture of generic kinase substrates (histone, casein, MBP, and polyEY) was used in the assay. The average of all signals from the same inhibitor or control experiment was calculated.
. The general specificities observed were consistent with the known general specificities for these inhibitors, which are listed in Table 3.

EPHB3 = EPHB3 (Homo sapiens, UniProt P54753); experiment: Dose-response analysis on 10-well kinase microarray; format: biochemical; details: different inhibitor concentration in each well; substrate MBP, histone and casein
Method: as §1
Microarrays were prepared with 10 wells/slide, wherein the kinases EPHB3, FYN, and PRKCD and their substrate were immobilized in each well. The slide was coated with substrate essentially as described in Example I. Subsequently, a gasket with 10 openings was applied to the surface of the slide thereby creating 10 wells, i.e., the gasket provides the barriers between the wells. The accession numbers for the different kinases in the NCBI database are: for FYN: NM_002037; for PRKCD: NM_006254; and for EPHB3: NM_004443.

FYN [5] = biological target: T3, FYN (Homo sapiens, UniProt P06241); experiment: as above; format: biochemical; details: different inhibitor concentration in each well; substrate MBP, histone and casein
Method: as §1, §2

FYN [6] = biological target: T3, FYN; experiment: Global specificity profiling experiment, single point inhibition on kinase microarray; format: biochemical; details: substrates histone, casein, MBP, polyEY
Method: as §1
A mixture of generic kinase substrates (histone, casein, MBP, and polyEY) was used in the assay. The average of all signals from the same inhibitor or control experiment was calculated.
To expedite data analysis regarding the kinase families that are inhibited by a particular […], a graphical representation can be constructed of inhibition data for substrates in such a manner that phylogenetically related kinases can be spatially arranged on the graphical representation.

Sequence of kinases of Table 5 (Homo sapiens, UniProt P11362) (P11362 22-822): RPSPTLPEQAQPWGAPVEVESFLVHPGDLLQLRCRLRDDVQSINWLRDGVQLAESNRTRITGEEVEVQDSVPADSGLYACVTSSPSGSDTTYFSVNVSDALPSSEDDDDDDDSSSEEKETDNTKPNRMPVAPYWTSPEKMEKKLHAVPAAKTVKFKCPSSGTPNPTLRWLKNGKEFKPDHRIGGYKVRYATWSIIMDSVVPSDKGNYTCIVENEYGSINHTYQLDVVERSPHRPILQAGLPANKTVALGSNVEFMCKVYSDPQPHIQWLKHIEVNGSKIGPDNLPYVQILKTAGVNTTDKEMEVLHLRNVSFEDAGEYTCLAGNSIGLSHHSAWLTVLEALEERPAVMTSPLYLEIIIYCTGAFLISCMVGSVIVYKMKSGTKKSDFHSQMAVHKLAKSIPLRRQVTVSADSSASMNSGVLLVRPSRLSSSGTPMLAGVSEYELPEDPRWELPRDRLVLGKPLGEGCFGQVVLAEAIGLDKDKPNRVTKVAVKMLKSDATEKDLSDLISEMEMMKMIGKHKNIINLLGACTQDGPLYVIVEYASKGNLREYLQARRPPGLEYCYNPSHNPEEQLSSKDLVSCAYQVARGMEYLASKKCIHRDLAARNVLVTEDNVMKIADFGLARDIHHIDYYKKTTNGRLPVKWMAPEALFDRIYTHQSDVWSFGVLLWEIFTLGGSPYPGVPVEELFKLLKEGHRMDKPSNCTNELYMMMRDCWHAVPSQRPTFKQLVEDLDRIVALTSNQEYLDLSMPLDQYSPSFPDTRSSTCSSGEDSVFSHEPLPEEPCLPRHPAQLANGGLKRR
Sequence of kinases of Table 5 (Homo sapiens, UniProt P24723) (P24723 whole entry): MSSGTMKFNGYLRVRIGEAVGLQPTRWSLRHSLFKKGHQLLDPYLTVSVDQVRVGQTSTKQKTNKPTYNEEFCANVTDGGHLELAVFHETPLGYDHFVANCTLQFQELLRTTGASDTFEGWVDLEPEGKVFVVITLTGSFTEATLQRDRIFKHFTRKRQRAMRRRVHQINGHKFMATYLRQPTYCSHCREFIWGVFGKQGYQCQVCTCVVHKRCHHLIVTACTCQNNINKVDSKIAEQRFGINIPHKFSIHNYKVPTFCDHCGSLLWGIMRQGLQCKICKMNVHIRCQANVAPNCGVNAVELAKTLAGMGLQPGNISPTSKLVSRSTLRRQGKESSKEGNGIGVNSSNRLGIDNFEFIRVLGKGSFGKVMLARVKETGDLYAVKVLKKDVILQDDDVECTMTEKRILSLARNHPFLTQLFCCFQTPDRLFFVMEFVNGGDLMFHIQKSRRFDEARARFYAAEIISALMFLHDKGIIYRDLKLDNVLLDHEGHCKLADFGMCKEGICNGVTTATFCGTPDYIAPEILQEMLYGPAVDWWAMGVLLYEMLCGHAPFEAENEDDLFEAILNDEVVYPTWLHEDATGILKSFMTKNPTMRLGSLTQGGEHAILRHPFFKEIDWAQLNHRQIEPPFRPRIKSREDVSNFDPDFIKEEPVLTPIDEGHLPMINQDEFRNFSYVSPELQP
T3 sequence (P06241 whole entry): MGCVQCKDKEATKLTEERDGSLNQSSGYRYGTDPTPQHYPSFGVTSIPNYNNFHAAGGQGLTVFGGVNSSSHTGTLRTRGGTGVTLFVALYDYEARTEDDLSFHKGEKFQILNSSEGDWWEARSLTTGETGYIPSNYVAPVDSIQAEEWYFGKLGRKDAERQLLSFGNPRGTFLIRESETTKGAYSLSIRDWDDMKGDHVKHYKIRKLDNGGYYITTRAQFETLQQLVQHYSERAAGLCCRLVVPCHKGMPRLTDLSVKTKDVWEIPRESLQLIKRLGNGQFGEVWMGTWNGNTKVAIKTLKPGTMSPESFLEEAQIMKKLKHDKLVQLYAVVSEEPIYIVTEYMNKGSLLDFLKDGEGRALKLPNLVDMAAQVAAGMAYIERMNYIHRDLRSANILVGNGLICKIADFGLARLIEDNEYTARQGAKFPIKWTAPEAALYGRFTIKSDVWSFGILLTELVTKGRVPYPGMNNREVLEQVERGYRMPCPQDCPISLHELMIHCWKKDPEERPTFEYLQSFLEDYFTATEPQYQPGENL
Sequence of EPHB3 (P54753 34-998): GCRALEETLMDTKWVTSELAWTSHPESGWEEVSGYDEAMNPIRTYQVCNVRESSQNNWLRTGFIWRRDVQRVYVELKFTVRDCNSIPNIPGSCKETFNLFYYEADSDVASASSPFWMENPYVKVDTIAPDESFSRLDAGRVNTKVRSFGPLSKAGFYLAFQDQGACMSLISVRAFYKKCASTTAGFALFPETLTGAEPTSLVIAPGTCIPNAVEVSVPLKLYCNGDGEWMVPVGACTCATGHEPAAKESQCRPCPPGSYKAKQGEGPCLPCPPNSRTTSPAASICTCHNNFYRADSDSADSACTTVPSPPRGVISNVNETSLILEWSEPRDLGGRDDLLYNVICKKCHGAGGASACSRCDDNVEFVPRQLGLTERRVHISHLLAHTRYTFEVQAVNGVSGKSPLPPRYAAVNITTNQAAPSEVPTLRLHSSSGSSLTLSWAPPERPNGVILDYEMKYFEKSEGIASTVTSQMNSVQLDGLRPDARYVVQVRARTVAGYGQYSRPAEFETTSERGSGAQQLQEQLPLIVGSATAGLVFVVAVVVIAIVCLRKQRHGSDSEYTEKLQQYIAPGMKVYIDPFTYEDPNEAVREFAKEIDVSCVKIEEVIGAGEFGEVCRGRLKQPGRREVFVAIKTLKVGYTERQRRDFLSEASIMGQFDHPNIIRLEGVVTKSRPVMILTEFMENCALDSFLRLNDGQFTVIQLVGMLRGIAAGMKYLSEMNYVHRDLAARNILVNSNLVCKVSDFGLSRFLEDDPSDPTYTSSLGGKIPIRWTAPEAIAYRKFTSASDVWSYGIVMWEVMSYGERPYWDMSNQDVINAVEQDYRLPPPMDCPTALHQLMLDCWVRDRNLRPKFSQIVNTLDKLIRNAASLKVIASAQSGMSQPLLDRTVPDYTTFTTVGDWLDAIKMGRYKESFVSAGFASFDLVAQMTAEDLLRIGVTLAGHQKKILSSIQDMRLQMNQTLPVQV
Sequence of PRKCD (Q05655 whole entry): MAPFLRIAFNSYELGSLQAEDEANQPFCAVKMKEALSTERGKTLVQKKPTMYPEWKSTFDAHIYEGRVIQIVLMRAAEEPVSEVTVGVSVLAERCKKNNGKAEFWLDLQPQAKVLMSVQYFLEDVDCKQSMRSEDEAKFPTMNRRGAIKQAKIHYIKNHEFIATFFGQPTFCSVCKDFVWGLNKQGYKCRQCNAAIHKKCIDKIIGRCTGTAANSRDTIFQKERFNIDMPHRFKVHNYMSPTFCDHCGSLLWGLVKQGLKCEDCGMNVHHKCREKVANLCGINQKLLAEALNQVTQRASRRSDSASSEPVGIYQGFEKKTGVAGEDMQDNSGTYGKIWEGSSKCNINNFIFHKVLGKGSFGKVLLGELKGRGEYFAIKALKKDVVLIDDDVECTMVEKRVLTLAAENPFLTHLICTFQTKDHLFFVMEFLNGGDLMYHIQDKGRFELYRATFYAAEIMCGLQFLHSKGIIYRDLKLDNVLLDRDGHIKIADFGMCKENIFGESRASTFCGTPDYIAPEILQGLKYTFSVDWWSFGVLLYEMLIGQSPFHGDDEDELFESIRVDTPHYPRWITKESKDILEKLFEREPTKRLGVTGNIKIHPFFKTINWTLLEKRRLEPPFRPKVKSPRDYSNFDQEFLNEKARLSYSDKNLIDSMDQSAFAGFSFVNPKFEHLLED

Inhibition level (kinases of Table 5 [1]; inhibitor 100 uM) | Inhibition level (kinases of Table 5 [2]) | Inhibition Results (Level) (kinases of Table 5 [3]) | Inhibition level (kinases of Table 5 [4]) | SMILES | Inhibition Results (Level) (kinases of Table 5 [1]; inhibitor 100 uM) | Inhibition Results (Level) (kinases of Table 5 [4]) | specificity observed in global profiling (percentage-of-inhibition data) (39 kinases (Table 4)) | other results
0 | 1 | 2 | 1 | COc1cc2ncnc(Nc3cccc(Cl)c3)c2cc1OC [AG 1478] | – | – | – | –
2 | 0 | 2 | 0 | O=c1c(-c2ccc(O)cc2)coc2cc(O)cc(O)c12 [Genistein] | – | – | – | Inhibition level (kinases of Table 5 [1]; concentration not given): 0
– | – | 2 | – | O=S(=O)(NCCNC/C=C/c1ccc(Br)cc1)c1cccc2cnccc12 [H-89] | 2 | 1 | – | Inhibition Results (Level) (kinases of Table 5 [2]): 1
2 | 2 | 1 | 2 | CC(C)(C)n1nc(-c2ccc(Cl)cc2)c2c(N)ncnc21 [PP2] | – | – | primarily inhibited tyrosine kinases | inhibition of PRKCD (dose-response) (PRKCD): not; inhibition of tyrosine kinases (tyrosine kinases): strongly inhibited; inhibition of EPHB3 (dose-response) (EPHB3): strongly inhibits
2 | 2 | 2 | 2 | Cn1cc(C2=C(c3cn(CCCSC(=N)N)c4ccccc34)C(=O)NC2=O)c2ccccc21 [Ro-31-8220] | – | – | more specifically targeted the serine-threonine kinases | Inhibition level (kinases of Table 5 [1]; concentration not given): 2

More lines, now with the values behind:

SMILES | Inhibition level (kinases of Table 5 [1]; inhibitor 100 uM) | Inhibition level (kinases of Table 5 [2]) | Inhibition Results (Level) (kinases of Table 5 [3]) | Inhibition level (kinases of Table 5 [4]) | Inhibition Results (Level) (kinases of Table 5 [1]; inhibitor 100 uM) | Inhibition Results (Level) (kinases of Table 5 [4]) | specificity observed in global profiling (percentage-of-inhibition data) (39 kinases (Table 4)) | other results
N#C/C(=C/c1ccc(O)c(O)c1)C(=O)NCc1ccccc1 [AG 490] | 2 | 0 | 2 | 0 | – | – | – | –
O=c1c(O)c(-c2ccc(O)c(O)c2)oc2cc(O)cc(O)c12 [Quercetin] | – | – | 0 | – | 0 | 0 | – | –
CC(=O)c1c(O)c(C)c(O)c(Cc2c(O)c3c(c(C(=O)/C=C/c4ccccc4)c2O)OC(C)(C)C=C3)c1O [Rottlerin (Mallotoxin)] | – | – | 1 | – | 2 | 1 | – | Inhibition Results (Level) (kinases of Table 5 [2]): 1
CN[C@@H]1C[C@H]2O[C@@](C)([C@@H]1OC)n1c3ccccc3c3c4c(c5c6ccccc6n2c5c31)C(=O)NC4 [Staurosporine] | – | – | – | – | – | – | broad spectrum of kinases inhibited | inhibition of FYN (dose-response) (FYN [5]): strongly inhibits; inhibition of FYN in global profiling (FYN [6]): inhibited; inhibition of EPHB3 (dose-response) (EPHB3): not
